In assay [1] the test system is leaf disc explants of in vitro grown potato plants. Kind of assay: Leaf disk kill curve (callus formation in leaf disc explants). As to conditions: solid Haberlach culture medium, 1% DMSO. The format is cell-based. As for the experimental part: Aimed at establish the concentration of sulfentrazone that will inhibit callus formation in leaf disc explants, leaf discs were punched with a sterile hole punch from 5 weeks old in vitro grown potato plants. The leaf discs were cultured in petri dishes containing solid Haberlach culture medium containing various concentrations of Sulfentrazone in a final concentration of 1% DMSO. Six leaf discs cultured at each herbicide concentration. Plates were sealed with micropore tape and incubated at room temperature (approximately 23° C.). In an initial experiment, 7.8 μM sulfentrazone, the lowest concentration tested in that experiment, was sufficient to stop callus formations and bleach all leaf discs within 20 days. […] Similar leaf disc kill curve experiments were performed using saflufenacil where 0.5 μM of this herbicide was sufficient to inhibit callus formation in almost all leaf discs after 20 days.

The subject of a further assay is potato plastidal PPX. Put plainly: Tolerance to saflufenacil of HemG mutant E. coli complemented with potato plastidal PPX (plate based selection, colony count). The format is cell-based, Solanum tuberosum. From the text: StcPPX1, less its chloroplast transit peptide was cloned from cDNA into Cibus' proprietary functional screening vector. This vector may be used both for functional screening, and for GRON QC. The potato PPX genes were used to complement the HemG mutant strain of E. coli, which lacks a functional HemG gene, a bacterial homolog of PPX. Without a complementing gene, the media must be supplemented with hematin for E. coli growth.
In order to assess mutations that confer tolerance to PPX inhibitors such as Chateau (flumioxazin-Valent/Sumitomo), Naja (diphenylether—MAI) or Kixor (saflufenacil—BASF). Pure active ingredients for the PPX inhibiting herbicides Chateau (flumioxazin—Valent/Sumitomo), Spartan (sulfentrazone—FMC) and Kixor/Sharpen (saflufenacil—BASF) were obtained. […] This was further refined, and 0.75 mM sulfentrazone was also used to select for tolerance. […] All potato mitochondrial PPX genes and alleles were tested for natural tolerance to sulfentrazone and flumioxazin, but none were tolerant.
Tolerance of all possible amino acid substitutions at each position displaying tolerance to sulfentrazone or flumioxazin were tested. Next, single amino acid substitutions were combined in all permutations and combinations to assess complementation and herbicide tolerance.

Consider one compound from US11111500B2, “Mutated protoporphyrinogen IX oxidase (PPX) genes” (CIBUS US LLC, priority 2010, dated 2021).

Consider `CC(C)N(C)S(=O)(=O)NC(=O)c1cc(-n2c(=O)cc(C(F)(F)F)n(C)c2=O)c(F)cc1Cl` [saflufenacil], for which the “concentration sufficient to inhibit callus formation in almost all leaf discs after 20 days” value in assay [1] was found to be 0.5 µM. The “saflufenacil concentration with no growth of the wildtype construct” value with potato plastidal PPX amounted to 0.3 mM.
